Results from PMC4856055 (Journal of medicinal chemistry, 2015).
Values joined by “and” are separate entries in the source; they are usually repeats but may differ in a detail not shown here. Equal values may be shown once. Read-outs that look alike come from different tables or passages of the source.

Columns and labels:
[1] = tested on: PSMA+ PC3 PIP and PSMA– PC3 flu xenografts; type: in vivo, mice; conditions: for PIP:blood ratio / PIP:flu ratio / PIP:kidney ratio / PIP:muscle ratio / biodistribution, PC-3 PIP tumor / biodistribution, PC-3 flu tumor / biodistribution, bladder / biodistribution, blood / biodistribution, bone / biodistribution, fat / biodistribution, heart / biodistribution, kidney / biodistribution, large intestine / biodistribution, liver / biodistribution, lung / biodistribution, muscle / biodistribution, pancreas / biodistribution, small intestine / biodistribution, spleen / biodistribution, stomach: tumor bearing mice
[2] = tested on: PSMA+ PC3 PIP and PSMA– PC3 flu tumor xenografts; test: Small animal PET or PET/CT imaging of tumor bearing mice; type: in vivo
PSMA = PSMA (Homo sapiens, UniProt Q04609); conditions: ref 13d; cited from earlier work
Chain of PSMA (Q04609 whole entry): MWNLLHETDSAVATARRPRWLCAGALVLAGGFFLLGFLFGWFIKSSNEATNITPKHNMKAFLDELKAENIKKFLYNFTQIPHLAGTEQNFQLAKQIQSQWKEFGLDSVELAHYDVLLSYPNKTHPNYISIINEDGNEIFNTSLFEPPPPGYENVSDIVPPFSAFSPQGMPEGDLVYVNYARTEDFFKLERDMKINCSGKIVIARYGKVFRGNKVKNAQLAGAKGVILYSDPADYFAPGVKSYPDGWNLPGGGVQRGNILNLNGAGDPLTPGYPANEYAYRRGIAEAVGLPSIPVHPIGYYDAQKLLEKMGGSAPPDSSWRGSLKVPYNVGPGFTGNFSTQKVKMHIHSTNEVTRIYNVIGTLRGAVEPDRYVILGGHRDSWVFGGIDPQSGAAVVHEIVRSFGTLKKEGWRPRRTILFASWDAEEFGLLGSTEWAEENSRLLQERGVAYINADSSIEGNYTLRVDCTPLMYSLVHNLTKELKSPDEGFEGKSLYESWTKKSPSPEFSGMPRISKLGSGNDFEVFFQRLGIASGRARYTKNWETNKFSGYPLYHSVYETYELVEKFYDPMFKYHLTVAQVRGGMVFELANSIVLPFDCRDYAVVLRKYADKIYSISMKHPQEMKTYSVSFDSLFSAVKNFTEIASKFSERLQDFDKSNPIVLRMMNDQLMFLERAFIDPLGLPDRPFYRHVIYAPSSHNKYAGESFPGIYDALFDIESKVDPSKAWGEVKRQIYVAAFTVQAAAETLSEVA

Question: Which results are given for `O=C(O)CCC(OC(=O)NC(CCCCNC(=O)c1ccc(I)cc1[18F])C(=O)O)C(=O)O` (stereo not drawn) [[^18F]24, 4-iodo-2-[^18F]fluorobenzoyllysine OPA carbamate]?
Answer: PIP:blood ratio ([1]; 0.5 h postinjection): 5.6; PIP:flu ratio ([1]; 0.5 h postinjection): 9.1; PIP:kidney ratio ([1]; 0.5 h postinjection): 0.5; PIP:muscle ratio ([1]; 0.5 h postinjection): 47 and 46.6; biodistribution, PC-3 PIP tumor ([1]; 0.5 h postinjection): 45 % ID/g and 44.7 ± 0.62 % ID/g; biodistribution, PC-3 flu tumor ([1]; 0.5 h postinjection): 4.91 ± 1.10 % ID/g; biodistribution, bladder ([1]; 0.5 h postinjection): 3.89 ± 0.40 % ID/g; biodistribution, blood ([1]; 0.5 h postinjection): 7.94 ± 0.99 % ID/g; biodistribution, bone ([1]; 0.5 h postinjection): 1.52 ± 0.19 % ID/g; biodistribution, fat ([1]; 0.5 h postinjection): 1.65 ± 0.67 % ID/g; biodistribution, heart ([1]; 0.5 h postinjection): 2.27 ± 0.32 % ID/g; biodistribution, kidney ([1]; 0.5 h postinjection): 94.4 ± 8.22 % ID/g; biodistribution, large intestine ([1]; 0.5 h postinjection): 1.83 ± 0.16 % ID/g; biodistribution, liver ([1]; 0.5 h postinjection): 16.6 ± 1.61 % ID/g; biodistribution, lung ([1]; 0.5 h postinjection): 5.13 ± 0.29 % ID/g; biodistribution, muscle ([1]; 0.5 h postinjection): 0.96 ± 0.21 % ID/g; biodistribution, pancreas ([1]; 0.5 h postinjection): 1.78 ± 0.15 % ID/g; biodistribution, small intestine ([1]; 0.5 h postinjection): 1.37 ± 0.06 % ID/g; biodistribution, spleen ([1]; 0.5 h postinjection): 14.6 ± 4.41 % ID/g; biodistribution, stomach ([1]; 0.5 h postinjection): 1.80 ± 0.08 % ID/g; PIP:blood ratio ([1]; 1 h postinjection): 20 and 19.7; PIP:flu ratio ([1]; 1 h postinjection): 25.4; PIP:kidney ratio ([1]; 1 h postinjection): 0.5; PIP:muscle ratio ([1]; 1 h postinjection): 100 and 100.2; biodistribution, PC-3 PIP tumor ([1]; 1 h postinjection): 57.1 ± 19.55 % ID/g; biodistribution, PC-3 flu tumor ([1]; 1 h postinjection): 2.25 ± 1.62 % ID/g; biodistribution, bladder ([1]; 1 h postinjection): 2.19 ± 0.22 % ID/g; biodistribution, blood ([1]; 1 h postinjection): 2.90 ± 1.98 % ID/g; biodistribution, bone ([1]; 1 h postinjection): 0.78 ± 0.14 % ID/g; biodistribution, fat ([1]; 1 h postinjection): 0.88 ± 0.68 % ID/g; biodistribution, heart ([1]; 1 h postinjection): 1.23 ± 0.22 % ID/g; biodistribution, kidney ([1]; 1 h postinjection): 122 ± 21.9 % ID/g; biodistribution, large intestine ([1]; 1 h postinjection): 0.78 ± 0.13 % ID/g; biodistribution, liver ([1]; 1 h postinjection): 15.5 ± 2.00 % ID/g; biodistribution, lung ([1]; 1 h postinjection): 3.31 ± 0.41 % ID/g; biodistribution, muscle ([1]; 1 h postinjection): 0.57 ± 0.06 % ID/g; biodistribution, pancreas ([1]; 1 h postinjection): 1.23 ± 0.29 % ID/g; biodistribution, small intestine ([1]; 1 h postinjection): 1.83 ± 1.12 % ID/g; biodistribution, spleen ([1]; 1 h postinjection): 7.81 ± 4.22 % ID/g; biodistribution, stomach ([1]; 1 h postinjection): 0.99 ± 0.17 % ID/g; PIP:blood ratio ([1]; 2 h postinjection): 66; PIP:flu ratio ([1]; 2 h postinjection): 71.1; PIP:kidney ratio ([1]; 2 h postinjection): 0.7; PIP:muscle ratio ([1]; 2 h postinjection): 250 and 250.5; biodistribution, PC-3 PIP tumor ([1]; 2 h postinjection): 85.2 ± 5.44 % ID/g; biodistribution, PC-3 flu tumor ([1]; 2 h postinjection): 1.20 ± 0.31 % ID/g; biodistribution, bladder ([1]; 2 h postinjection): 7.48 ± 0.68 % ID/g; biodistribution, blood ([1]; 2 h postinjection): 1.29 ± 0.87 % ID/g; biodistribution, bone ([1]; 2 h postinjection): 0.36 ± 0.02 % ID/g; biodistribution, fat ([1]; 2 h postinjection): 1.12 ± 0.43 % ID/g; biodistribution, heart ([1]; 2 h postinjection): 0.57 ± 0.09 % ID/g; biodistribution, kidney ([1]; 2 h postinjection): 115 ± 13.2 % ID/g; biodistribution, large intestine ([1]; 2 h postinjection): 0.55 ± 0.01 % ID/g; biodistribution, liver ([1]; 2 h postinjection): 8.99 ± 0.55 % ID/g; biodistribution, lung ([1]; 2 h postinjection): 1.91 ± 0.29 % ID/g; biodistribution, muscle ([1]; 2 h postinjection): 0.34 ± 0.07 % ID/g; biodistribution, pancreas ([1]; 2 h postinjection): 0.92 ± 0.40 % ID/g; biodistribution, small intestine ([1]; 2 h postinjection): 1.19 ± 0.61 % ID/g; biodistribution, spleen ([1]; 2 h postinjection): 6.78 ± 1.25 % ID/g; biodistribution, stomach ([1]; 2 h postinjection): 0.51 ± 0.07 % ID/g; PIP:blood ratio ([1]; 4 h postinjection): 156 and 155.8; PIP:flu ratio ([1]; 4 h postinjection): 231.1; PIP:kidney ratio ([1]; 4 h postinjection): 1.3; PIP:muscle ratio ([1]; 4 h postinjection): 743; biodistribution, PC-3 PIP tumor ([1]; 4 h postinjection): 97 % ID/g and 96.6 ± 18.7 % ID/g; biodistribution, PC-3 flu tumor ([1]; 4 h postinjection): 0.42 ± 0.07 % ID/g; biodistribution, bladder ([1]; 4 h postinjection): 2.03 ± 1.09 % ID/g; biodistribution, blood ([1]; 4 h postinjection): 0.62 ± 0.10 % ID/g; biodistribution, bone ([1]; 4 h postinjection): 0.18 ± 0.04 % ID/g; biodistribution, fat ([1]; 4 h postinjection): 0.58 ± 0.17 % ID/g; biodistribution, heart ([1]; 4 h postinjection): 0.24 ± 0.04 % ID/g; biodistribution, kidney ([1]; 4 h postinjection): 74.4 ± 13.8 % ID/g; biodistribution, large intestine ([1]; 4 h postinjection): 0.96 ± 0.25 % ID/g; biodistribution, liver ([1]; 4 h postinjection): 2.77 ± 0.49 % ID/g; biodistribution, lung ([1]; 4 h postinjection): 0.94 ± 0.06 % ID/g; biodistribution, muscle ([1]; 4 h postinjection): 0.13 ± 0.04 % ID/g; biodistribution, pancreas ([1]; 4 h postinjection): 0.26 ± 0.06 % ID/g; biodistribution, small intestine ([1]; 4 h postinjection): 0.24 ± 0.09 % ID/g; biodistribution, spleen ([1]; 4 h postinjection): 3.49 ± 0.86 % ID/g; biodistribution, stomach ([1]; 4 h postinjection): 0.19 ± 0.03 % ID/g; tumor/kidney ratio ([1]; at 2–4 h): approximately 1; PSMA+ PC3 PIP tumor uptake on small animal PET imaging ([2]; male SCID mice with PSMA+ PC3 PIP and PSMA– PC3 flu xenografts): Intense and selective radiotracer uptake; uptake in salivary glands on imaging ([2]; mouse, in vivo): Neither [^18F]23 nor [^18F]24 demonstrated any uptake in salivary glands

Question: For `O=C(O)CC[C@H](NC(=O)N[C@@H](CCCCNC(=O)c1ccc(F)cc1)C(=O)O)C(=O)O` [compound 9], which Ki (PSMA) is on record?
Answer: 0.25 nM
